Measured values published in patent US10150728B2, “Alkylene derivatives” (Shionogi & Co., Ltd., priority 2013, dated 2018).

Target: recombinant human ACC2 (Homo sapiens (Human), UniProt O00763)
Experiment: Measurement of inhibitory activity on human ACC2 (MALDI-TOF MS, acetyl CoA to malonyl CoA conversion)
Format: biochemical
Details: Tables 155-159
Procedure, shortened: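 His-tagged human ACC2 (residues 27–2458) from baculovirus-infected Sf-9 cells was preincubated 1 h in pH 7.4 HEPES-KOH buffer with MgCl2, 6-10 mM potassium citrate, glutathione and BSA. Substrate solution held 1 mM ATP, 0.8 mM acetyl CoA and 25-50 mM bicarbonate. After 1–3 h at room temperature, malonyl CoA/(malonyl+acetyl CoA) was read by negative-mode MALDI-TOF MS; citrate, bicarbonate and time varied by enzyme lot.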

Sequence of recombinant human ACC2 (O00763 27-2458): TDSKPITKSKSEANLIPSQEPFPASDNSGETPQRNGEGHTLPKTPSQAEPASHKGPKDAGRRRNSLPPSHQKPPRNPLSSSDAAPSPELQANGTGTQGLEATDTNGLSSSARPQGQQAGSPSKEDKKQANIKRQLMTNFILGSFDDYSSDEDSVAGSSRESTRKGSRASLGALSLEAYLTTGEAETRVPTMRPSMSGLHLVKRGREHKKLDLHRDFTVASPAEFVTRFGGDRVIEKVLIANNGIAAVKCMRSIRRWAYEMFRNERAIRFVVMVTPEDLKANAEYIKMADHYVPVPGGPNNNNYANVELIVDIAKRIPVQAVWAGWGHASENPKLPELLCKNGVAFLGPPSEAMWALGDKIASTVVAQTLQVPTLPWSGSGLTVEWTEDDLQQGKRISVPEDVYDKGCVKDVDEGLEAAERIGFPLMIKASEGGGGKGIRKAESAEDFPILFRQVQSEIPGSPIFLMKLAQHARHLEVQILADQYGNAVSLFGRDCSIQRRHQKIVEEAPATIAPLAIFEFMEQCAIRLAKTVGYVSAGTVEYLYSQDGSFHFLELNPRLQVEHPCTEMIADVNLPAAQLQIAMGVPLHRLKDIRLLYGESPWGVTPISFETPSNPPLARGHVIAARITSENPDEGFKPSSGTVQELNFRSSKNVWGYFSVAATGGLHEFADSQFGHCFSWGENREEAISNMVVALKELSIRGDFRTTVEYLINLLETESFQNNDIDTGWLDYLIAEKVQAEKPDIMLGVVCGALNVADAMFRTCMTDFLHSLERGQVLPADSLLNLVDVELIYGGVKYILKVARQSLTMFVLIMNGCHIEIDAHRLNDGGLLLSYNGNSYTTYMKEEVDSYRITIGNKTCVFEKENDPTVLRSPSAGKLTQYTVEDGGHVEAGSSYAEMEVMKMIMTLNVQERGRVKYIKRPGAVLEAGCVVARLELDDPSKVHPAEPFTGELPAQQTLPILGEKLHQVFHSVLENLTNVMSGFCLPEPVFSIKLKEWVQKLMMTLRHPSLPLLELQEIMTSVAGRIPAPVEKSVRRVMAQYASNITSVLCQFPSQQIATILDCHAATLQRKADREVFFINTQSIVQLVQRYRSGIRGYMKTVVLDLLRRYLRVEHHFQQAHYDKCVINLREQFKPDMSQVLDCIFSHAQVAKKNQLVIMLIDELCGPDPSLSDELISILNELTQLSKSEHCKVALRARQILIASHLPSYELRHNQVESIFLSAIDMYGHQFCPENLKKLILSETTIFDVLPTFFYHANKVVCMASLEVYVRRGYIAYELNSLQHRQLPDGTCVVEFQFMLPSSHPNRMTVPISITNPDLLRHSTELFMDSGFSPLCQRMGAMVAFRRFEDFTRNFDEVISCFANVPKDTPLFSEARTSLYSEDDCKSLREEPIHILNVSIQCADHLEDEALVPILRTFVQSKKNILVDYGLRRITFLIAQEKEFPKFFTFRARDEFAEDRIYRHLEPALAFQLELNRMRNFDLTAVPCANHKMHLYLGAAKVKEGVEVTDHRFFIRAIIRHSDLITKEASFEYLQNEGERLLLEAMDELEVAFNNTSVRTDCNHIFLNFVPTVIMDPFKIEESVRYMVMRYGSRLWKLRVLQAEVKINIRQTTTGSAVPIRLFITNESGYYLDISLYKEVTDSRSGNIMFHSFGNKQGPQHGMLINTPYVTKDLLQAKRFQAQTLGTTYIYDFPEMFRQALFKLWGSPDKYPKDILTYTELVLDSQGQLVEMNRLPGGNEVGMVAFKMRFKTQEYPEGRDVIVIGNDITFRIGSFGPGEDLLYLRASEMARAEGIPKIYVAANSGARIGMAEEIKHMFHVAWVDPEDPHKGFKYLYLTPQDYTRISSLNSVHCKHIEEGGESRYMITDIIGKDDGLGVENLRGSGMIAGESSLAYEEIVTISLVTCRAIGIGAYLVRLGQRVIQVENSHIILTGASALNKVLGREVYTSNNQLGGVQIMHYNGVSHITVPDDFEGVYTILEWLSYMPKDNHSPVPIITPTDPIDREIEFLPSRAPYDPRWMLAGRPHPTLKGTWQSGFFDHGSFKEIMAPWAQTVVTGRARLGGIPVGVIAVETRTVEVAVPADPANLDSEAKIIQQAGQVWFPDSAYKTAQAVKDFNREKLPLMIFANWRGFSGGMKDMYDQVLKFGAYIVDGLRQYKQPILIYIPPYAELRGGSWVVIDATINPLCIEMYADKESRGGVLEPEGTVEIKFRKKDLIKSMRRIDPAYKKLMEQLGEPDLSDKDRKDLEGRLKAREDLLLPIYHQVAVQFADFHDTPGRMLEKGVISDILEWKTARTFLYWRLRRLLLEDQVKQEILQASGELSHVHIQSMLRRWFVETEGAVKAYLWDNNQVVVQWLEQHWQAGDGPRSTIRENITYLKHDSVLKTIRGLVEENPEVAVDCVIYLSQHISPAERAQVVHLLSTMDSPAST

Row | Structure (SMILES) | IC50
1 | CC(=O)N[C@@H](C)CO[C@H]1C[C@H](COc2ncnc(OCc3cscn3)c2Cl)C1 [Compound I-412] | 42 nM
2 | CC(=O)N[C@@H](C)CO[C@H]1C[C@H](COc2nccc(N(C)Cc3ccccc3)c2Cl)C1 [Compound I-413] | 84 nM
3 | CC(=O)N[C@@H](C)CO[C@H]1C[C@H](COc2nccc(N3CCCC3C)c2Cl)C1 (some centres unmarked) [Compound I-414] | 59 nM
4 | CC(=O)N[C@@H](C)CO[C@H]1C[C@H](COc2ncnc(OCc3ccccc3)c2C)C1 [Compound I-415] | 18 nM
5 | CC(=O)N[C@@H](C)CO[C@H]1C[C@H](COc2ncnc(/C=C/c3ccccc3)c2C)C1 [Compound I-416] | 90 nM
6 | CC(=O)N[C@@H](C)CO[C@H]1C[C@H](COc2ncnc(-c3ccc(F)cc3)c2C)C1 [Compound I-417] | 451 nM
7 | CC(=O)N[C@@H](C)CO[C@H]1C[C@H](COc2ncnc(-c3ccc(C(F)(F)F)cc3)c2C)C1 [Compound I-418] | 733 nM
8 | CC(=O)N[C@@H](C)CO[C@H]1C[C@H](COc2ncnc(C3=CCCCC3)c2C)C1 [Compound I-419] | 109 nM
9 | COc1ccc(-c2ncnc(OC[C@H]3C[C@H](OC[C@H](C)NC(C)=O)C3)c2C)cc1 [Compound I-420] | 447 nM
10 | CC(=O)N[C@@H](C)CO[C@H]1C[C@H](COc2ncnc(OCC3CC3)c2C)C1 [Compound I-421] | 24 nM
11 | CC(=O)N[C@@H](C)CO[C@H]1C[C@H](COc2nccc(OC3CC(F)(F)C3)c2Cl)C1 [Compound I-422] | 358 nM
12 | CC(=O)N[C@@H](C)CO[C@H]1C[C@H](COc2nsc3ccccc23)C1 [Compound I-424] | 122 nM
13 | CC(=O)N[C@@H](C)CO[C@H]1C[C@H](COc2ncnc3c2c(I)cn3CC2CC2)C1 [Compound I-425] | 170 nM
14 | CC(=O)N[C@@H](C)CO[C@H]1C[C@H](COc2ncnc3c2c(C)cn3CC2CC2)C1 [Compound I-426] | 57 nM
15 | CC(=O)N[C@@H](C)CO[C@H]1C[C@H](COc2ncnc3c2c(C#N)cn3CC2CC2)C1 [Compound I-427] | 270 nM
16 | CC(=O)N[C@@H](C)CO[C@H]1C[C@H](COc2nccc3c2cnn3CC2CCC2)C1 [Compound I-428] | 53 nM
17 | CC(=O)N[C@@H](C)CO[C@H]1C[C@H](COc2ncnc(COc3ccccc3)c2Cl)C1 [Compound I-429] | 26 nM
18 | CC(=O)N[C@@H](C)CO[C@H]1C[C@H](COc2ncnc3c2ccn3Cc2ccccc2)C1 [Compound I-430] | 12 nM
19 | CC(=O)N[C@@H](C)CO[C@H]1C[C@H](COc2ncnc(OCc3ncco3)c2Cl)C1 [Compound I-431] | 809 nM
20 | CC(=O)N[C@@H](C)CO[C@H]1C[C@H](COc2ncnc3c2ccn3Cc2ccccn2)C1 [Compound I-432] | 588 nM
21 | CC(=O)N[C@@H](C)CO[C@H]1C[C@H](COc2nccc(NC(=O)C3CCCCC3)c2Cl)C1 [Compound I-433] | 11 nM
22 | CC(=O)N[C@@H](C)CO[C@H]1C[C@H](COc2ncnc3c2ccn3Cc2cccnc2)C1 [Compound I-434] | 653 nM
23 | CC(=O)N[C@@H](C)CO[C@H]1C[C@H](COc2ncnc(OCc3ccccn3)c2Cl)C1 [Compound I-435] | 7 nM
24 | CC(=O)N[C@@H](C)CO[C@H]1C[C@@H](COc2ncnc(OCc3ccccn3)c2Cl)C1 [Compound I-436] | 4 nM

Row | Structure (SMILES) | IC50
25 | CC(=O)N[C@@H](C)CO[C@H]1C[C@H](COc2ncnc(OCc3cc(C(F)(F)F)ccn3)c2Cl)C1 [Compound I-437] | 19 nM
26 | CC(=O)N[C@@H](C)CO[C@H]1C[C@H](COc2ncnc(OCc3ncc(Cl)s3)c2Cl)C1 [Compound I-439] | 4 nM
27 | CC(=O)N[C@@H](C)CO[C@H]1C[C@H](COc2ncnc3c2c(F)cn3CC2CC2(F)F)C1 (some centres unmarked) [Compound I-440] | 19 nM
28 | CC(=O)N[C@@H](C)CO[C@H]1C[C@H](COc2ncnc(OCc3ncc(F)s3)c2Cl)C1 [Compound I-441] | 12 nM
29 | CC(=O)N[C@@H](C)CO[C@H]1C[C@H](Oc2nccc3c(OCC4CC4)nccc23)C1 [Compound I-442] | 35 nM
30 | CC(=O)N[C@@H](C)CO[C@H]1C[C@H](COc2ncnc(OCc3nnc(C(F)(F)F)s3)c2Cl)C1 [Compound I-443] | 240 nM
31 | CC(=O)N[C@@H](C)CO[C@H]1C[C@H](COc2ncnc3c2ccn3CCC2CC2)C1 [Compound I-444] | 51 nM
32 | CC(=O)N[C@@H](C)CO[C@H]1C[C@H](Oc2nccc3c(OCc4ccccc4)nccc23)C1 [Compound I-445] | 14 nM
33 | CC(=O)N[C@@H](C)CO[C@H]1CC[C@H](Oc2ncnc(OCc3ccc(F)cn3)c2Cl)CC1 [Compound I-446] | 77 nM
34 | CC(=O)N[C@@H](C)CO[C@H]1C[C@H](COc2nc(C)nc3c2ccn3CC2CC2)C1 [Compound I-447] | 76 nM
35 | CC(=O)N[C@@H](C)CO[C@H]1C[C@H](COc2ncnc3c2ccn3-c2ccccc2)C1 [Compound I-448] | 400 nM
36 | CC(=O)N[C@@H](C)CO[C@H]1C[C@H](COc2ncnc3c2ccn3CC2CCCCC2)C1 [Compound I-449] | 51 nM
37 | CC(=O)N[C@@H](C)CO[C@H]1C[C@H](COc2ncnc3c2c(F)cn3CC2CC2)C1 [Compound I-450] | 14 nM
38 | CC(=O)N[C@@H](C)CO[C@H]1C[C@H](COc2ncnc3c2ccn3C2CCCCC2)C1 [Compound I-451] | 40 nM
39 | CC(=O)N[C@@H](C)CO[C@H]1C[C@H](COc2ncnc(NC(=O)c3ccccc3)c2Cl)C1 [Compound I-452] | 109 nM
40 | CCn1ccc2c(OC[C@H]3C[C@H](OC[C@H](C)NC(C)=O)C3)ncnc21 [Compound I-453] | 610 nM
41 | CC(=O)N[C@@H](C)CO[C@H]1C[C@H](COc2ncnc3c2cc(C)n3CC2CC2)C1 [Compound I-454] | 87 nM
42 | CC(=O)N[C@@H](C)CO[C@H]1CC[C@H](Oc2ncnc(OCc3ncc(Cl)s3)c2Cl)CC1 [Compound I-455] | 50 nM
43 | CC(=O)N[C@@H](C)CO[C@H]1C[C@H](c2nc3cnc(OCc4ccccc4)cc3o2)C1 [Compound I-456] | 280 nM
44 | CC(=O)N[C@@H](C)CO[C@]1(C)C[C@@H](COc2ncnc(OCc3ccc(F)cn3)c2Cl)C1 [Compound I-457] | 19 nM
45 | CC(=O)N[C@@H](C)CO[C@H]1C[C@H](COc2nccc3c2CCN3CC2CC2)C1 [Compound I-458] | 32 nM
46 | CC(=O)N[C@@H](C)CO[C@H]1C[C@H](COc2ncnc(OCc3ccc(F)cn3)c2F)C1 [Compound I-459] | 16 nM
47 | CC(=O)N[C@@H](C)CO[C@H]1C[C@H](COc2ncnc(OCc3cc(Cl)ccn3)c2F)C1 [Compound I-460] | 4 nM
48 | CC(=O)N[C@@H](C)CO[C@H]1C[C@H](COc2ncnc(OCc3ccc(F)cc3)c2F)C1 [Compound I-461] | 4 nM

Row | Structure (SMILES) | IC50
49 | CC(=O)N[C@@H](C)CO[C@H]1C[C@H](COc2ncnc(-c3nc4ccccc4o3)c2Cl)C1 [Compound I-462] | 90 nM
50 | CC(=O)N[C@@H](C)CO[C@H]1C[C@H](COc2ncnc(OCC3CCCCO3)c2Cl)C1 (some centres unmarked) [Compound I-463] | 17 nM
51 | CC(=O)N[C@@H](C)CO[C@H]1C[C@H](COc2ncnc(OCc3cncs3)c2Cl)C1 [Compound I-464] | 36 nM
52 | CC(=O)N[C@@H](C)CO[C@H]1C[C@H](COc2nccc3c2cnn3CC2CC2(F)F)C1 (some centres unmarked) [Compound I-465] | 160 nM
53 | CC(=O)N[C@@H](C)CO[C@H]1C[C@H](COc2ncnc(OC3(c4ccccc4)CC3)c2Cl)C1 [Compound I-466] | 179 nM
54 | CC(=O)N[C@@H](C)CO[C@H]1C[C@H](COc2ncnc(OCc3ccc(Cl)cn3)c2F)C1 [Compound I-467] | 7 nM
55 | CC(=O)N[C@@H](C)CO[C@H]1C[C@H](COc2ncnc(NC(=O)C3CCCCC3)c2Cl)C1 [Compound I-468] | 368 nM
56 | CC(=O)N[C@@H](C)CO[C@H]1C[C@H](Cn2ccc3c(OCc4ccccc4)ncnc32)C1 [Compound I-469] | 596 nM
57 | CC(=O)N[C@@H](C)CO[C@H]1C[C@H](Cn2ccc3c(OCc4cc(Cl)ccn4)ncnc32)C1 [Compound I-470] | 426 nM
58 | CC(=O)N[C@@H](C)CO[C@H]1C[C@H](COc2ncnc3c2ccn3C(C)C)C1 [Compound I-471] | 159 nM
59 | CC(=O)N[C@@H](C)CO[C@H]1C[C@H](COc2ncnc3c2ccn3Cc2ccccc2F)C1 [Compound I-472] | 26 nM
60 | CC(=O)N[C@@H](C)CO[C@H]1C[C@H](COc2ncnc3c2ccn3Cc2cccc(F)c2)C1 [Compound I-473] | 28 nM
61 | CC(=O)N[C@@H](C)CO[C@H]1C[C@H](COc2ncnc3c2ccn3Cc2ccc(F)cc2)C1 [Compound I-474] | 16 nM
62 | CC(=O)N[C@@H](C)CO[C@H]1C[C@H](COc2ccc3nc(OC4CC4)n(C)c3n2)C1 [Compound I-475] | 540 nM
63 | CC(=O)N[C@@H](C)CO[C@H]1C[C@H](COc2ccc3nc(OCC4CC4)n(C)c3n2)C1 [Compound I-476] | 74 nM
64 | CC(=O)N[C@@H](C)CO[C@H]1C[C@H](COc2ccc3nc(OCC4CC4(F)F)n(C)c3n2)C1 (some centres unmarked) [Compound I-477] | 247 nM
65 | CC(=O)N[C@@H](C)CO[C@H]1C[C@H](COc2ccc3nc(OC4CC(F)(F)C4)n(C)c3n2)C1 [Compound I-478] | 116 nM
66 | CCOc1nc2ccc(OC[C@H]3C[C@H](OC[C@H](C)NC(C)=O)C3)nc2n1CC [Compound I-479] | 563 nM
67 | CC(=O)N[C@@H](C)CO[C@H]1C[C@H](COc2ccc3nc(OCc4ccccc4)n(C)c3n2)C1 [Compound I-480] | 41 nM
68 | CC(=O)N[C@@H](C)CO[C@H]1C[C@H](COc2ccc3nc(Oc4ccccc4)n(C)c3n2)C1 [Compound I-481] | 298 nM
69 | CC(=O)N[C@@H](C)CO[C@H]1C[C@H](COc2ccc3nc(OCCC(C)C)n(C)c3n2)C1 [Compound I-482] | 87 nM
70 | CCCOc1nc2ccc(OC[C@H]3C[C@H](OC[C@H](C)NC(C)=O)C3)nc2n1C [Compound I-483] | 81 nM
71 | CC(=O)N[C@@H](C)CO[C@H]1C[C@H](COc2ccc3nc(OCC(F)F)n(C)c3n2)C1 [Compound I-484] | 204 nM
